# Laboratory results reported in PubChem BioAssay (NCI).
#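 At the GI50, growth is halved. TGI is the concentration that stops growth completely.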
# Legend:
# Test in all cases: NCI tumour cell line growth inhibition, 384-well format
# [1] = tested on: 786-0 renal
# [2] = tested on: A498 renal
# [3] = tested on: BT-549 breast
# [4] = tested on: CAKI-1 renal
# [5] = tested on: COLO 205 colon
# [6] = tested on: DU-145 prostate
# [7] = tested on: EKVX NSCLC
# [8] = tested on: HCT-116 colon
# [9] = tested on: HL-60(TB) leukemia
# [10] = tested on: HOP-62 NSCLC
# [11] = tested on: HOP-92 NSCLC
# [12] = tested on: HT29 colon
# [13] = tested on: IGROV1 ovarian
# [14] = tested on: K-562 leukemia
# [15] = tested on: KM12 colon
# [16] = tested on: M14 melanoma
# [17] = tested on: MALME-3M melanoma
# [18] = tested on: MDA-MB-231 breast
# [19] = tested on: MDA-MB-435 melanoma
# [20] = tested on: MDA-MB-468 breast
# [21] = tested on: MOLT-4 leukemia
# [22] = tested on: NCI-H226 lung
# [23] = tested on: NCI-H23 lung
# [24] = tested on: NCI-H460 NSCLC
# [25] = tested on: NCI-H522 lung
# [26] = tested on: OVCAR-3 ovarian
# [27] = tested on: OVCAR-4 ovarian
# [28] = tested on: PC-3 prostate
# [29] = tested on: RXF 393 renal
# [30] = tested on: SF-268 CNS
# [31] = tested on: SF-539 CNS
# [32] = tested on: SK-MEL-2 melanoma
# [33] = tested on: SK-MEL-28 melanoma
# [34] = tested on: SK-OV-3 ovarian
# [35] = tested on: SN12C renal
# [36] = tested on: SNB-19 CNS
# [37] = tested on: SW-620 colon
# [38] = tested on: TK-10 renal
# [39] = tested on: UACC-257 melanoma
# [40] = tested on: UACC-62 melanoma
# [41] = tested on: UO-31 renal
# [42] = tested on: A549 NSCLC
# [43] = tested on: ACHN renal
# [44] = tested on: CCRF-CEM leukemia
# [45] = tested on: HCC-2998 colon
# [46] = tested on: HCT-15 colon
# [47] = tested on: HS 578T breast
# [48] = tested on: LOX IMVI melanoma
# [49] = tested on: MCF7 breast
# [50] = tested on: NCI-H322M lung
# [51] = tested on: NCI/ADR-RES ovarian
# [52] = tested on: OVCAR-5 ovarian
# [53] = tested on: OVCAR-8 ovarian
# [54] = tested on: RPMI-8226 leukemia
# [55] = tested on: SF-295 CNS
# [56] = tested on: SK-MEL-5 melanoma
# [57] = tested on: SNB-75 CNS
# [58] = tested on: SR leukemia
# [59] = tested on: T-47D breast
# [60] = tested on: U251 glioblastoma
smiles,measurement,setting,value
COc1cc(N2CCC(N3CCN(C)CC3)CC2)ccc1Nc1ncc(Cl)c(Nc2ccccc2S(=O)(=O)C(C)C)n1,GI50,[1],1.01 µM
same,TGI,[1],2.17 µM
same,GI50,[2],0.79 µM
same,TGI,[2],2.79 µM
same,GI50,[3],0.418 µM
same,TGI,[3],1.32 µM
same,GI50,[4],0.49 µM
same,TGI,[4],1.56 µM
same,GI50,[5],0.0518 µM
same,TGI,[5],0.232 µM
same,GI50,[6],0.3 µM
same,TGI,[6],1.63 µM
same,GI50,[7],0.0487 µM
same,TGI,[7],0.263 µM
same,GI50,[8],0.308 µM
same,TGI,[8],1.63 µM
same,GI50,[9],0.0361 µM
same,TGI,[9],0.187 µM
same,GI50,[10],0.356 µM
same,TGI,[10],1.35 µM
same,GI50,[11],0.318 µM
same,TGI,[11],1.31 µM
same,GI50,[12],0.0486 µM
same,TGI,[12],0.294 µM
same,GI50,[13],0.283 µM
same,TGI,[13],1.16 µM
same,GI50,[14],0.404 µM
same,TGI,[14],1.68 µM
same,GI50,[15],0.319 µM
same,TGI,[15],1.29 µM
same,GI50,[16],0.491 µM
same,TGI,[16],1.86 µM
same,GI50,[17],0.494 µM
same,TGI,[17],1.84 µM
same,GI50,[18],0.556 µM
same,TGI,[18],1.89 µM
same,GI50,[19],0.447 µM
same,TGI,[19],1.96 µM
same,GI50,[20],0.133 µM
same,TGI,[20],0.315 µM
same,GI50,[21],0.202 µM
same,TGI,[21],0.687 µM
same,GI50,[22],0.118 µM
same,TGI,[22],0.648 µM
same,GI50,[23],0.228 µM
same,TGI,[23],1.39 µM
same,GI50,[24],0.131 µM
same,TGI,[24],1.07 µM
same,GI50,[25],0.367 µM
same,TGI,[25],1.49 µM
same,GI50,[26],0.517 µM
same,TGI,[26],1.78 µM
same,GI50,[27],0.417 µM
same,TGI,[27],12.2 µM
same,GI50,[28],1.03 µM
same,TGI,[28],2.22 µM
same,GI50,[29],0.294 µM
same,TGI,[29],0.952 µM
same,GI50,[30],0.397 µM
same,TGI,[30],1.51 µM
same,GI50,[31],0.246 µM
same,TGI,[31],0.673 µM
same,GI50,[32],0.383 µM
same,TGI,[32],1.83 µM
same,GI50,[33],17.8 µM
same,TGI,[33],32.3 µM
same,GI50,[34],1.11 µM
same,TGI,[34],2.32 µM
same,GI50,[35],0.385 µM
same,TGI,[35],1.4 µM
same,GI50,[36],1.22 µM
same,TGI,[36],2.52 µM
same,GI50,[37],0.218 µM
same,TGI,[37],1.18 µM
same,GI50,[38],0.379 µM
same,TGI,[38],1.51 µM
same,GI50,[39],0.571 µM
same,TGI,[39],1.95 µM
same,GI50,[40],0.388 µM
same,TGI,[40],1.69 µM
same,GI50,[41],0.929 µM
same,TGI,[41],2.14 µM
CNC(=O)CN1CCC(Oc2cc3c(Nc4cccc(Cl)c4F)ncnc3cc2OC)CC1,GI50,[1],5.7 µM
same,TGI,[1],24.6 µM
same,GI50,[2],12.4 µM
same,TGI,[2],27.2 µM
same,GI50,[42],2.31 µM
same,TGI,[42],17.7 µM
same,GI50,[43],0.0298 µM
same,TGI,[43],10.7 µM
same,GI50,[3],11.7 µM
same,TGI,[3],27.1 µM
same,GI50,[4],0.915 µM
same,TGI,[4],13.5 µM
same,GI50,[44],15.3 µM
same,TGI,[44],29.9 µM
same,GI50,[5],15.3 µM
same,TGI,[5],28.7 µM
same,GI50,[6],3.88 µM
same,TGI,[6],43.4 µM
same,GI50,[7],0.0357 µM
same,TGI,[7],4.33 µM
same,GI50,[45],14.9 µM
same,TGI,[45],28.4 µM
same,GI50,[46],10.8 µM
same,TGI,[46],22.8 µM
same,GI50,[9],18.9 µM
same,TGI,[9],33 µM
same,GI50,[10],8.39 µM
same,TGI,[10],27.5 µM
same,GI50,[11],4.39 µM
same,TGI,[11],20.2 µM
same,GI50,[47],4.07 µM
same,TGI,[47],16.1 µM
same,GI50,[12],11.3 µM
same,TGI,[12],24.6 µM
same,GI50,[13],0.068 µM
same,TGI,[13],1.55 µM
same,GI50,[14],10.9 µM
same,TGI,[14],23.3 µM
same,GI50,[15],18.7 µM
same,TGI,[15],35.6 µM
same,GI50,[48],10.7 µM
same,TGI,[48],22.6 µM
same,GI50,[16],15.3 µM
same,TGI,[16],29.1 µM
same,GI50,[17],12.8 µM
same,TGI,[17],26.7 µM
same,GI50,[49],10.3 µM
same,TGI,[49],24.9 µM
same,GI50,[18],4.2 µM
same,TGI,[18],18.1 µM
same,GI50,[19],26.6 µM
same,TGI,[19],83.5 µM
same,GI50,[20],< 0.01 µM
same,GI50,[21],14.1 µM
same,TGI,[21],27.2 µM
same,GI50,[22],11.1 µM
same,TGI,[22],29.9 µM
same,GI50,[23],10.7 µM
same,TGI,[23],30.8 µM
same,GI50,[50],< 0.01 µM
same,TGI,[50],1.89 µM
same,GI50,[24],16.3 µM
same,TGI,[24],34.1 µM
same,GI50,[25],0.0493 µM
same,TGI,[25],11.6 µM
same,GI50,[51],12.9 µM
same,TGI,[51],29.4 µM
same,GI50,[26],1.95 µM
same,TGI,[26],14.8 µM
same,GI50,[27],3.28 µM
same,TGI,[27],24.3 µM
same,GI50,[52],0.906 µM
same,TGI,[52],10.9 µM
same,GI50,[53],13.1 µM
same,TGI,[53],43.2 µM
same,GI50,[28],14.7 µM
same,TGI,[28],35 µM
same,GI50,[54],9.35 µM
same,TGI,[54],21.5 µM
same,GI50,[29],10.1 µM
same,TGI,[29],25.5 µM
same,GI50,[30],9.9 µM
same,TGI,[30],36.4 µM
same,GI50,[55],14.8 µM
same,TGI,[55],28.3 µM
same,GI50,[31],12.4 µM
same,TGI,[31],25.5 µM
same,GI50,[33],13.9 µM
same,TGI,[33],27 µM
same,GI50,[56],10.2 µM
same,TGI,[56],21.9 µM
same,GI50,[34],0.383 µM
same,TGI,[34],11.3 µM
same,GI50,[35],0.426 µM
same,TGI,[35],9.66 µM
same,GI50,[36],14.3 µM
same,TGI,[36],45.2 µM
same,GI50,[57],9.75 µM
same,TGI,[57],34.1 µM
same,GI50,[58],15.1 µM
same,TGI,[58],29.3 µM
same,GI50,[37],13.9 µM
same,TGI,[37],27.4 µM
same,GI50,[59],0.38 µM
same,TGI,[59],6.28 µM
same,GI50,[38],0.0537 µM
same,TGI,[38],13 µM
same,GI50,[60],17.2 µM
same,TGI,[60],36.3 µM
same,GI50,[39],14.6 µM
same,TGI,[39],28.1 µM
same,GI50,[40],13.9 µM
same,TGI,[40],27.1 µM
same,GI50,[41],12.4 µM
same,TGI,[41],> 100 µM
